Measured values reported in patent publication US10208030B2, “GPR119 agonist compounds” (Mankind Pharma Ltd., priority 2016, dated 2019).
Structures can show the parent of a compound that is named as a salt.

Target: T1, hGPR119 (Homo sapiens, UniProt Q8TDV5)
T1 construct: expressed in transfected cells; host or cells: CHO cells (CHO-hGPR119)
T1 sequence (Q8TDV5 1-335): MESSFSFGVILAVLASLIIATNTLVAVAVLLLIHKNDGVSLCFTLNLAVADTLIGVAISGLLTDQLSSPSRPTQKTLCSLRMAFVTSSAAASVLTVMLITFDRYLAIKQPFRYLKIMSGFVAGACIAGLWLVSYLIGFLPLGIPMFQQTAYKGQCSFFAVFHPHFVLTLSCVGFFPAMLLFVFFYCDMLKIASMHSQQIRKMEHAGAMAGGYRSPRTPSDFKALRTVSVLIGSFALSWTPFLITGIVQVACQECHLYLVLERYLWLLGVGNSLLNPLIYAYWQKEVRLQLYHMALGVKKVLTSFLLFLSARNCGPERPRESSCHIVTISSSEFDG
Assay: In vitro cyclic AMP assay (Cisbio HTRF) in CHO-hGPR119 cells
Type: cell-based
Settings: cAMP; for activation at 1 µM: 1 h, 60 min, read-out: Induction (% induction at 1 μM); for EC50: class symbols, legend not given
Method: cAMP measurements were done using Cisbio dynamic 2 HTRF kit according to the manufacturer's protocol. Briefly, CHO-hGPR119 cells were plated at a cell density of 5000 cells/well/5 μl into a white small volume 384 well plate. The final concentrations of IBMX and DMSO used were 1 mM and 0.5% respectively. Cells were treated with various concentrations of the test compound for 60 min at room temperature. Cells were lysed by buffer containing Anti-cAMP antibody and d2-cAMP reagents and incubated for 1 hour at room temperature. HTRF was measured at 337 nm excitation and emission wavelengths of 665 nm and 620 nm on a microplate reader (Flurostar, BMG Labtech). Graphpad prism software was utilized for EC50 determinations.

Structure (SMILES) | activation at 1 µM | EC50
CC(C)c1noc(N2CCC(C(C)Oc3nn4cc(-c5cnc(Cl)cn5)nc4s3)CC2)n1 (stereo not drawn) [Compound 1079, 2-(1-(1-(3-isopropyl-1,2,4-oxadiazol-5-yl)piperidin-4-yl)ethoxy)-6-(5-chloropyrazin-2-yl)imidazo[2,1-b][1,3,4]thiadiazole] | 87% | –
CC(C)c1noc(N2CCC([C@@H](C)Oc3nn4cc(-c5ccc(-c6nnn[nH]6)cc5F)nc4s3)CC2)n1 [Compound 1105, 2-((R)-1-(1-(3-isopropyl-1,2,4-oxadiazol-5-yl)piperidin-4-yl)ethoxy)-6-(2-fluoro-4-(1H-tetrazol-5-yl)phenyl)imidazo[2,1-b][1,3,4]thiadiazole hydrochloride] | 30% | –
CC(C)c1noc(N2CCC([C@H](C)Oc3nn4cc(-c5ccc(S(C)(=O)=O)c(F)c5)nc4s3)CC2)n1 [Compound 1078, 2-((S)-1-(1-(3-isopropyl-1,2,4-oxadiazol-5-yl)piperidin-4-yl)ethoxy)-6-(3-fluoro-4-(methylsulfonyl)phenyl)imidazo[2,1-b][1,3,4]thiadiazole] | 54% | –
CC(C)c1noc(N2CCC(C(C)Oc3nn4c(F)c(-c5ccc(S(C)(=O)=O)cc5)nc4s3)CC2)n1 (stereo not drawn) [Compound 1061, 5-(4-(1-((5-fluoro-6-(4-(methylsulfonyl)phenyl)imidazo[2,1-b][1,3,4]thiadiazol-2-yl)oxy)ethyl)piperidin-1-yl)-3-isopropyl-1,2,4-oxadiazole] | 79% | –
CC(C)c1noc(N2CCC(C(C)Oc3nn4cc(-c5ccncc5C(F)(F)F)nc4s3)CC2)n1 (stereo not drawn) [Compound 1092, 2-(1-(1-(3-isopropyl-1,2,4-oxadiazol-5-yl)piperidin-4-yl)ethoxy)-6-(3-(trifluoromethyl)pyridin-4-yl)imidazo[2,1-b][1,3,4]thiadiazole] | 25% | –
CCc1cnc(N2CCC(c3nsnc3-c3ccc(S(C)(=O)=O)cc3)CC2)nc1 [Compound 1004, 3-(1-(5-ethylpyrimidin-2-yl)piperidin-4-yl)-4-(4-(methylsulfonyl)phenyl)-1,2,5-thiadiazole] | 6% | –
CC(C)c1noc(N2CCC(C(C)Oc3nn4cc(-c5cncs5)nc4s3)CC2)n1 (stereo not drawn) [Compound 1111, 2-(1-(1-(3-isopropyl-1,2,4-oxadiazol-5-yl)piperidin-4-yl)ethoxy)-6-(thiazol-5-yl)imidazo[2,1-b][1,3,4]thiadiazole] | 63% | –
CC(C)c1noc(C2CCN(c3nsnc3Oc3ccc(-n4cnnn4)cc3)CC2)n1 [Compound 1003, 5-(1-(4-(4-(1H-tetrazol-1-yl)phenoxy)-1,2,5-thiadiazol-3-yl)piperidin-4-yl)-3-isopropyl-1,2,4-oxadiazole] | 3% | –
CC(C)c1noc(N2CCC(C(C)Oc3nn4cc(-c5ccc(C(F)(F)F)nc5)nc4s3)CC2)n1 (stereo in doubt) [Compound 1084, 2-((S)-1-(1-(3-isopropyl-1,2,4-oxadiazol-5-yl)piperidin-4-yl)ethoxy)-6-(6-(trifluoromethyl)pyridin-3-yl)imidazo[2,1-b][1,3,4]thiadiazole] | 72% | –
CC(C)c1noc(N2CCC(Nc3nc(-c4ccc(S(C)(=O)=O)nc4)ns3)CC2)n1 [Compound 1126, 1-(3-isopropyl-1,2,4-oxadiazol-5-yl)-N-(3-(6-(methylsulfonyl)pyridin-3-yl)-1,2,4-thiadiazol-5-yl)piperidin-4-amine] | 7% | –
CC(C)c1noc(C2CCN(c3nn4c(Cl)c(-c5ccc(S(C)(=O)=O)cc5)nc4s3)CC2)n1 [Compound 1044, 5-(1-(5-chloro-6-(4-(methylsulfonyl)phenyl)imidazo[2,1-b][1,3,4]thiadiazol-2-yl)piperidin-4-yl)-3-isopropyl-1,2,4-oxadiazole] | 71% | –
CC(C)c1noc(N2CCC(C(C)Oc3nn4cc(-c5ccncc5F)nc4s3)CC2)n1 (stereo in doubt) [Compound 1064, (S)-5-(4-(1-((6-(3-fluoropyridin-4-yl)imidazo[2,1-b][1,3,4]thiadiazol-2-yl)oxy)ethyl)piperidin-1-yl)-3-isopropyl-1,2,4-oxadiazole] | 75% | A++
CC(C)c1noc(N2CCC([C@@H](C)Oc3nn4c(F)c(-c5ccc(S(C)(=O)=O)cc5)nc4s3)CC2)n1 [Compound 1066, (R)-5-(4-(1-((5-fluoro-6-(4-(methylsulfonyl)phenyl)imidazo[2,1-b][1,3,4]thiadiazol-2-yl)oxy)ethyl)piperidin-1-yl)-3-isopropyl-1,2,4-oxadiazole] | 72% | A+
CC(C)c1noc(N2CCC([C@@H](C)Oc3nn4cc(-c5ccnc(F)c5)nc4s3)CC2)n1 [Compound 1065, (R)-5-(4-(1-((6-(2-fluoropyridin-4-yl)imidazo[2,1-b][1,3,4]thiadiazol-2-yl)oxy)ethyl)piperidin-1-yl)-3-isopropyl-1,2,4-oxadiazole] | 62% | –
CCc1cnc(N2CC=C(c3nsnc3Oc3ccc(-n4cnnn4)cc3)CC2)nc1 [Compound 1005, 3-(4-(1H-tetrazol-1-yl)phenoxy)-4-(1-(5-ethylpyrimidin-2-yl)-1,2,3,6-tetrahydropyridin-4-yl)-1,2,5-thiadiazole] | 2% | –
CC(C)c1noc(N2CCC(COc3nn4cc(-c5ccncc5)nc4s3)CC2)n1 [Compound 1054, 3-isopropyl-5-(4-(((6-(pyridin-4-yl)imidazo[2,1-b][1,3,4]thiadiazol-2-yl)oxy)methyl)piperidin-1-yl)-1,2,4-oxadiazole] | 16% | –
CC(C)c1noc(N2CCC(C(C)Oc3nn4cc(-c5ccc(S(C)(=O)=O)nc5)nc4s3)CC2)n1 (stereo not drawn) [Compound 1055, 3-isopropyl-5-(4-(1-((6-(6-(methylsulfonyl)pyridin-3-yl)imidazo[2,1-b][1,3,4]thiadiazol-2-yl)oxy)ethyl)piperidin-1-yl)-1,2,4-oxadiazole] | 76% | –

More lines, now with the values ahead:

activation at 1 µM | EC50 | Structure (SMILES)
24% | – | CC(C)c1noc(C2CCN(c3nn4cc(-c5ccc(C(=O)N(C)C)cc5)nc4s3)CC2)n1 [Compound 1036, 4-(2-(4-(3-isopropyl-1,2,4-oxadiazol-5-yl)piperidin-1-yl)imidazo[2,1-b][1,3,4]thiadiazol-6-yl)-N,N-dimethylbenzamide]
65% | A+ | CC(C)c1noc(N2CCC([C@@H](C)Oc3nn4cc(-c5ccc(S(C)(=O)=O)cc5)nc4s3)CC2)n1 [Compound 1060, (R)-3-isopropyl-5-(4-(1-((6-(4-(methylsulfonyl)phenyl)imidazo[2,1-b][1,3,4]thiadiazol-2-yl)oxy)ethyl)piperidin-1-yl)-1,2,4-oxadiazole]
73% | – | CCc1cnc(N2CCC(C(C)Oc3nn4cc(-c5ccncc5)nc4s3)CC2)nc1 (stereo not drawn) [Compound 1056, 2-(1-(1-(5-ethylpyrimidin-2-yl)piperidin-4-yl)ethoxy)-6-(pyridin-4-yl)imidazo[2,1-b][1,3,4]thiadiazole]
21% | – | COCCNC(=O)c1ccc(-c2nn3cc(C4CCN(C(=O)OC(C)C)CC4)nc3s2)cc1 [Compound 1035, isopropyl 4-(2-(4-((2-methoxyethyl)carbamoyl)phenyl)imidazo[2,1-b][1,3,4]thiadiazol-6-yl)piperidine-1-carboxylate]
4% | – | CC(C)c1noc(C2CCN(c3nn4cc(COc5ccc(S(C)(=O)=O)cc5)nc4s3)CC2)n1 [Compound 1040, 3-isopropyl-5-(1-(6-((4-(methylsulfonyl)phenoxy)methyl)imidazo[2,1-b][1,3,4]thiadiazol-2-yl)piperidin-4-yl)-1,2,4-oxadiazole]
68% | A+ | CCOC(=O)N1CCC([C@H](C)Oc2nn3cc(-c4ccc(S(C)(=O)=O)cc4F)nc3s2)CC1 [Compound 1113, ethyl 4-((S)-1-(6-(2-fluoro-4-(methylsulfonyl)phenyl)imidazo[2,1-b][1,3,4]thiadiazol-2-yloxy)ethyl)piperidine-1-carboxylate]
78% | A+ | CCc1cnc(N2CCC([C@@H](C)Oc3nn4cc(-c5ccc(S(C)(=O)=O)cc5)nc4s3)CC2)nc1 [Compound 1062, (R)-2-(1-(1-(5-ethylpyrimidin-2-yl)piperidin-4-yl)ethoxy)-6-(4-(methylsulfonyl)phenyl)imidazo[2,1-b][1,3,4]thiadiazole]
65% | A+ | CC(Oc1nn2cc(-c3ccc(S(C)(=O)=O)cc3)nc2s1)C1CCN(c2ncc(Cl)cn2)CC1 (stereo not drawn) [Compound 1069, 2-(1-(1-(5-chloropyrimidin-2-yl)piperidin-4-yl)ethoxy)-6-(4-(methylsulfonyl)phenyl)imidazo[2,1-b][1,3,4]thiadiazole]
49% | – | CC(C)c1noc(N2CCC(COc3nn4cc(-c5ccc(C#N)cc5)nc4s3)CC2)n1 [Compound 1053, 4-(2-((1-(3-isopropyl-1,2,4-oxadiazol-5-yl)piperidin-4-yl)methoxy)imidazo[2,1-b][1,3,4]thiadiazol-6-yl)benzonitrile]
11% | – | COCCNC(=O)c1ccc(-c2cn3nc(N4CCC(c5nc(C(C)C)no5)CC4)sc3n2)cc1 [Compound 1039, 4-(2-(4-(3-isopropyl-1,2,4-oxadiazol-5-yl)piperidin-1-yl)imidazo[2,1-b][1,3,4]thiadiazol-6-yl)-N-(2-methoxyethyl)benzamide]
